Results reported in ChEMBL document CHEMBL3390847, “Boronic acids in medicinal chemistry: anticancer, antibacterial and antiviral applications” (Medchemcomm, 2010).
Values after ≈ are worked out from the molar mass of the structure shown.

Experiments:
[1] = target: T1, Proteasome Macropain subunit MB1 (Homo sapiens, UniProt P28074); experiment: Inhibition of chymotrypsin-like activity of proteasome beta5 subunit (unknown origin)
T1 sequence (P28074 whole entry): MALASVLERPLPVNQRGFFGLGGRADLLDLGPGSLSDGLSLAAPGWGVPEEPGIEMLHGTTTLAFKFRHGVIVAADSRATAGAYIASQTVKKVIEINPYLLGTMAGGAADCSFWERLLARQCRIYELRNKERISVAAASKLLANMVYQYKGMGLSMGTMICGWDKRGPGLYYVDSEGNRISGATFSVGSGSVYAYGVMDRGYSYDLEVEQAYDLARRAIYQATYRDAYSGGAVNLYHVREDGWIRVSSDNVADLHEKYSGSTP

[2] = target: T2, Proteasome subunit beta type-7 (Homo sapiens, UniProt Q99436); experiment: Inhibition of trypsin-like activity of proteasome beta7 subunit (unknown origin)
T2 sequence (Q99436 whole entry): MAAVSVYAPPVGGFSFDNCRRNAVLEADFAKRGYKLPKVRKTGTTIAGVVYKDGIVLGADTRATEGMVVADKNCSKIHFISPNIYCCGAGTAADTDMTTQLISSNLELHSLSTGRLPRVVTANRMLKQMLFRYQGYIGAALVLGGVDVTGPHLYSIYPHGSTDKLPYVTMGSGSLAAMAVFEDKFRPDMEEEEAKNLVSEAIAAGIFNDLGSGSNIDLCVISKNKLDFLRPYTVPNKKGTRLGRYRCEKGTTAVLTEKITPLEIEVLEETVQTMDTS

[3] = Inhibition of post-glutamyl peptide hydrolysis proteasome subunit (unknown origin); parameters: species or system Homo sapiens
Staphylococcus aureus = experiment: Antimicrobial activity against Staphylococcus aureus […] after 18 hrs by broth macrodilution assay; format: functional
[4] = test system: Staphylococcus epidermidis; experiment: Antimicrobial activity against Staphylococcus epidermidis ATCC 12228 after 18 hrs by broth macrodilution assay; format: functional; conditions: ATCC 12228, 18 h
Bacillus subtilis = experiment: Antimicrobial activity against Bacillus subtilis ATCC 23857 after 18 hrs by broth macrodilution assay; format: functional; conditions: ATCC 23857, 18 h
Tubulin [5] = experiment: Inhibition of tubulin polymerization (unknown origin); format: protein-complex assay, Homo sapiens
MCF7 = experiment: Cytotoxicity against human MCF7 cells; format: functional, cell-based
[6] = Inhibition of tubulin polymerization in rat A10 cells assessed as microtubule loss; format: cell-based
Moraxella catarrhalis = experiment: Antimicrobial activity against Moraxella catarrhalis after 18 hrs by broth macrodilution assay; format: functional
[7] = Cytotoxicity against human MCF10A cells; format: cell-based; conditions: MCF-10A
[8] = Cytotoxicity against human MCF12A cells; format: cell-based; conditions: MCF-12A
[9] = Inhibition of AmpC beta-lactamase (unknown origin)
B16 = experiment: Cytotoxicity against mouse B16 cells; format: functional, cell-based
[10] = Cytotoxicity against human 1-87 cells; format: functional, cell-based
Tubulin [11] = experiment: Inhibition of tubulin polymerization (unknown origin) after 30 mins; format: protein-complex assay, Homo sapiens
[12] = Inhibition of alpha-chymotrypsin (unknown origin); parameters: species or system Homo sapiens
Tubulin (Homo sapiens) = Tubulin (Homo sapiens) (UniProt P68371+Q9H4B7+P0DPH7+P68366+Q13509+Q71U36+P04350+Q3ZCM7+P07437+P68363+Q9BQE3+Q6PEY2+Q13885+Q9BVA1+Q9BUF5); experiment: Displacement of [3H]colchicine from tubulin (unknown origin) at 5 uM; format: protein-complex assay
[13] = Inhibition of YFV recombinant NS3 protease expressed in Escherichia coli using Bz-nKRR-AMC as substrate after 30 mins; parameters: species or system Yellow fever virus
Bacillus anthracis = experiment: Antimicrobial activity against Bacillus anthracis; format: functional
[14] = target: T3, Epidermal growth factor receptor (Homo sapiens, UniProt P00533); experiment: Inhibition of EGFR kinase (unknown origin) using poly(Glu:Tyr) as substrate at 1 uM
T3 sequence (P00533 whole entry): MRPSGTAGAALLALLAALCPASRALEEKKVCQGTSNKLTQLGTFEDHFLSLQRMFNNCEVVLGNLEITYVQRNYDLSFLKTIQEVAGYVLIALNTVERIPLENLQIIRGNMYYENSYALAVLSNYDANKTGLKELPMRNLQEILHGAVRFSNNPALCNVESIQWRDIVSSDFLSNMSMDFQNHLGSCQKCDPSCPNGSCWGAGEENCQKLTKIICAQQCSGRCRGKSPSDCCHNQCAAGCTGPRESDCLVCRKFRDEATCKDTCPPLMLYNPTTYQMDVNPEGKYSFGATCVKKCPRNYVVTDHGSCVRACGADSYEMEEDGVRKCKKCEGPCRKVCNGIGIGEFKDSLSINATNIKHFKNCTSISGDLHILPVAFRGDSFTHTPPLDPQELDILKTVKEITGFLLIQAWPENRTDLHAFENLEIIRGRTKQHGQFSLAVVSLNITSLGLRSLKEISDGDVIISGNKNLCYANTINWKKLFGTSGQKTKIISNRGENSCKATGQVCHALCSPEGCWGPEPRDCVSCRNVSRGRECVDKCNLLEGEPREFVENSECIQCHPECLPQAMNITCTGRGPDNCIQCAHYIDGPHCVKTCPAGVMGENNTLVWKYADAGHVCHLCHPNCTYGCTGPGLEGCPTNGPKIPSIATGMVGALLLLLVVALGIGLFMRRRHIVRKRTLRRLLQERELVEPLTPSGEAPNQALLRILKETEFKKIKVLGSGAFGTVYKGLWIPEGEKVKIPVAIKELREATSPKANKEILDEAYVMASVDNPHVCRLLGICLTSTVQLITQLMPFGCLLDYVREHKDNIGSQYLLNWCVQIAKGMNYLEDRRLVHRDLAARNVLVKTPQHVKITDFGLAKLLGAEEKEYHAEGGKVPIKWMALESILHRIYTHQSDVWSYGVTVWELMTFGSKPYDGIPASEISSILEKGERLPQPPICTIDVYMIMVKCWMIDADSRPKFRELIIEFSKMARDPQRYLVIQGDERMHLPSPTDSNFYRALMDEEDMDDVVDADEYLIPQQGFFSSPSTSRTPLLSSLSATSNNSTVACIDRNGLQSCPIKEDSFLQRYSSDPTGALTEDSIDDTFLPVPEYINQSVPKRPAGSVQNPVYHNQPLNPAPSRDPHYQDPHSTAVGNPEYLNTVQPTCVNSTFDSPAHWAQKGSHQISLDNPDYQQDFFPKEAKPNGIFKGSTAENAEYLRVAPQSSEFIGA

[15] = target: T3, Epidermal growth factor receptor; experiment: Inhibition of EGFR kinase (unknown origin) using poly(Glu:Tyr) as substrate
A-431 = experiment: Cytotoxicity against human A431 cells; format: functional
[16] = Inhibition of AmpC beta-lactamase N289A mutant (unknown origin)
[17] = Inhibition of TEM-1 (unknown origin)
[18] = Inhibition of TEM-30 (unknown origin)
[19] = Inhibition of beta-lactamase SHV2 G238S mutant (unknown origin) expressed in Escherichia coli DH10B using nitrocefin as substrate
[20] = Inhibition of beta-lactamase SHV2 D104K mutant (unknown origin) expressed in Escherichia coli DH10B using nitrocefin as substrate
[21] = Inhibition of beta-lactamase SHV-1 (unknown origin) expressed in Escherichia coli DH10B using nitrocefin as substrate
[22] = Inhibition of beta-lactamase SHV-1 D104K/G238S mutant (unknown origin) expressed in Escherichia coli DH10B using nitrocefin as substrate

CC(C)C[C@H](NC(=O)[C@H](Cc1ccc2ccccc2c1)NC(=O)[C@H](CC(C)C)NC(=O)c1cnccn1)B1O[C@@H]2[C@H]3CC[C@H](C3(C)C)[C@]2(C)O1
IC50 [1]: 0.38 nM
IC50 [2]: > 0.02 µM
IC50 [3]: 0.00391 µM

Clc1ccc(C(Oc2cccc3cccnc23)c2ccc(Cl)cc2)cc1
MIC (Staphylococcus aureus): > 64 µg/mL
MIC [4]: > 64 µg/mL
MIC (Bacillus subtilis): > 64 µg/mL

COc1cc(C(=O)/C=C/c2cc(OC)c(OC)c(OC)c2)ccc1B(O)O
IC50 (Tubulin [5]): > 40 µM
IC50 (MCF7): > 2.5 µM
EC50 [6]: > 15 µM

CC(C)C[C@H](NC(=O)[C@H](Cc1ccc2ccccc2c1)NC(=O)[C@H](CC(C)C)NC(=O)c1cnccn1)B(O)O
IC50 [1]: 0.08 nM
IC50 [2]: > 0.02 µM
IC50 [3]: 0.00363 µM

COc1ccc(/C=C/c2cc(OC)c(OC)c(OC)c2)cc1B(O)O
IC50 (Tubulin [5]): 7.8 µM
IC50 (MCF7): 0.47 µM
EC50 [6]: > 15 µM

C=CB(Oc1cccc2cccnc12)c1ccccc1
MIC (Staphylococcus aureus): 2 µg/mL (≈ 7.72 µM)
MIC [4]: 1 µg/mL (≈ 3.86 µM)
MIC (Moraxella catarrhalis): 2 µg/mL (≈ 7.72 µM)

O=C(/C=C/c1ccc(I)cc1)c1ccc(OCB(O)O)cc1
IC50 [7]: 38 µM
IC50 [8]: 100 µM

CC(=O)OCC1=C(C(=O)O)N2C(=O)[C@@H](NC(=O)Cc3cccs3)[C@H]2SC1 [CEPHALOTHIN]
Ki [9]: 0.32 µM

COc1ccc(/C=C\c2cc(OC)c(OC)c(OC)c2)cc1C(=O)O
IC50 (B16): 160 µM
IC50 [10]: 110 µM
IC50 (Tubulin [11]): > 100 µM

OCc1ccccc1 [BENZYL ALCOHOL]
Ki [12]: 10000 µM

COc1ccc(/C=C\c2cc(OC)c(OC)c(OC)c2)cc1O [COMBRETASTATIN A4]
IC50 (MCF7): 0.032 µM
EC50 [6]: < 0.025 µM
IC50 (B16): 0.0046 µM
IC50 [10]: 0.0085 µM

Clc1cccc(B(Oc2cccc3cccnc23)c2cccc(Cl)c2)c1
MIC (Staphylococcus aureus): 1 µg/mL (≈ 2.65 µM)
MIC [4]: 2 µg/mL (≈ 5.29 µM)
MIC (Bacillus subtilis): 2 µg/mL (≈ 5.29 µM)
MIC (Moraxella catarrhalis): 2 µg/mL (≈ 5.29 µM)

CC(C)C[C@H](NC(=O)[C@H](Cc1ccc(O)cc1)NC(=O)[C@H](Cc1ccccc1)NC(=O)c1cnccn1)B(O)O
IC50 [1]: 0.39 nM
IC50 [2]: > 0.02 µM
IC50 [3]: 0.00401 µM

CC(C)C[C@H](NC(=O)[C@H](Cc1ccccc1)NC(=O)[C@H](Cc1ccccc1)NC(=O)c1cnccn1)B1O[C@@H]2[C@H]3CC[C@H](C3(C)C)[C@]2(C)O1
IC50 [1]: 0.4 nM
IC50 [2]: > 0.02 µM
IC50 [3]: 0.00833 µM

COc1ccc(/C=C\c2cc(OC)c(OC)c(OC)c2)cc1B(O)O
IC50 (Tubulin [5]): 1.5 µM
IC50 (MCF7): 0.017 µM
EC50 [6]: 0.058 µM
inhibition (Tubulin (Homo sapiens)): 79%
IC50 (B16): 0.0063 µM
IC50 [10]: 0.013 µM
IC50 (Tubulin [11]): 22 µM

COc1cc(/C=C\c2ccc(OC)c(B(O)O)c2)cc(OC)c1
IC50 (B16): 0.019 µM
IC50 [10]: 0.028 µM
IC50 (Tubulin [11]): 21 µM

CCCC[C@H](NC(=O)c1ccccc1)C(=O)N[C@@H](CCCCN)C(=O)N[C@@H](CCCCN)C(=O)N[C@@H](CCCNC(=N)N)B(O)O
Ki [13]: 0.05 µM

COc1cc(/C=C\c2cccc(B(O)O)c2)cc(OC)c1
IC50 (B16): 1.8 µM
IC50 [10]: 2 µM
IC50 (Tubulin [11]): > 100 µM

CC(C)C[C@H](NC(=O)[C@H](Cc1ccccc1)NC(=O)[C@H](Cc1ccc2ccccc2c1)NC(=O)c1cnccn1)B(O)O
IC50 [1]: 0.42 nM
IC50 [2]: > 0.02 µM
IC50 [3]: 0.00443 µM

CC[C@H]1OC(=O)[C@H](C)[C@@H](O[C@H]2C[C@@](C)(OC)[C@@H](O)[C@H](C)O2)[C@H](C)[C@@H](O[C@@H]2O[C@H](C)C[C@H](N(C)C)[C@H]2O)[C@](C)(O)C[C@@H](C)C(=O)[C@H](C)[C@@H](O)[C@]1(C)O [ERYTHROMYCIN]
MIC90 (Bacillus anthracis): 1.5 µg/mL (≈ 2.04 µM)

OB(O)/C=C/COc1ccc2ncnc(Nc3cccc(Cl)c3)c2c1
inhibition [14]: 63%
IC50 [15]: 0.27 µM
GI50 (A-431): 0.68 µM

COc1cc(/C=C\c2ccc(B(O)O)cc2)cc(OC)c1OC
IC50 (B16): 2.6 µM
IC50 [10]: 3.2 µM
IC50 (Tubulin [11]): > 100 µM

CC(C)C[C@H](NC(=O)[C@H](Cc1ccc(O)cc1)NC(=O)[C@H](Cc1ccccc1)NC(=O)c1cnccn1)B1O[C@@H]2[C@H]3CC[C@H](C3(C)C)[C@]2(C)O1
IC50 [1]: 0.34 nM
IC50 [2]: > 0.02 µM
IC50 [3]: 0.00539 µM

C=CB(Oc1cccc2cccnc12)c1cccc(Cl)c1
MIC (Staphylococcus aureus): 2 µg/mL (≈ 6.81 µM)
MIC [4]: 1 µg/mL (≈ 3.41 µM)
MIC (Bacillus subtilis): 4 µg/mL (≈ 13.6 µM)
MIC (Moraxella catarrhalis): 4 µg/mL (≈ 13.6 µM)

OB(O)c1ccc(COc2ccc3ncnc(Nc4cccc(Cl)c4)c3c2)cc1
inhibition [14]: 55%
IC50 [15]: 0.85 µM
GI50 (A-431): 1.82 µM

Cc1ccc2cccc(OB(c3ccc(Cl)cc3)c3ccc(Cl)cc3)c2n1
MIC (Staphylococcus aureus): 16 µg/mL (≈ 40.8 µM)
MIC [4]: 8 µg/mL (≈ 20.4 µM)

COc1cc(/C=C/C(=O)c2cc(OC)c(OC)c(OC)c2)ccc1B(O)O
IC50 (Tubulin [5]): 31 µM
IC50 (MCF7): 0.9 µM
EC50 [6]: 16.5 µM

COc1cc(/C=C\c2ccc(B(O)O)cc2)cc(OC)c1
IC50 (B16): 12 µM
IC50 [10]: 9.1 µM
IC50 (Tubulin [11]): 79 µM

COc1cc(/C=C\c2cccc(B(O)O)c2)cc(OC)c1OC
IC50 (B16): 0.49 µM
IC50 [10]: 2.1 µM
IC50 (Tubulin [11]): > 100 µM

O=C(O)/C=C/c1cccc([C@H](NC(=O)Cc2cccs2)B(O)O)c1
Ki [16]: 0.0028 µM
Ki [17]: 0.106 µM
Ki [18]: 3.8 µM

CO/N=C(/C(=O)NCB(O)O)c1csc(N)n1
Ki [19]: 6.8 µM
Ki [20]: 0.7 µM

COc1cc(/C=C/C(=O)c2cc(OC)c(OC)c(OC)c2)ccc1O
IC50 (Tubulin [5]): 2.6 µM
IC50 (MCF7): 0.11 µM
EC50 [6]: 0.98 µM

Clc1cccc(B(Oc2ccc(Cl)c3cccnc23)c2cccc(Cl)c2)c1
MIC (Staphylococcus aureus): 0.5 µg/mL (≈ 1.21 µM)
MIC [4]: 0.25 µg/mL (≈ 0.606 µM)
MIC (Bacillus subtilis): 32 µg/mL (≈ 77.6 µM)
MIC (Moraxella catarrhalis): ≤ 0.125 µg/mL

CC(C)C[C@H](NC(=O)[C@H](Cc1ccccc1)NC(=O)[C@H](Cc1ccccc1)NC(=O)c1cnccn1)B(O)O
IC50 [1]: 0.55 nM
IC50 [2]: > 0.02 µM
IC50 [3]: 0.0109 µM

COc1cc(C(=O)/C=C/c2cc(OC)c(OC)c(OC)c2)ccc1O
IC50 (Tubulin [5]): > 40 µM
IC50 (MCF7): > 2.5 µM
EC50 [6]: 18 µM

CC1(C)[C@H]2CC3OB(COc4ccc5ncnc(Nc6cccc(Cl)c6)c5c4)O[C@@]3(C)[C@@H]1C2 (stereo partly specified)
inhibition [14]: 65%
IC50 [15]: 0.2 µM
GI50 (A-431): 0.54 µM

CC(C)C[C@H](NC(=O)[C@H](Cc1ccccc1)NC(=O)[C@H](Cc1ccc2ccccc2c1)NC(=O)c1cnccn1)B1O[C@@H]2[C@H]3CC[C@H](C3(C)C)[C@]2(C)O1
IC50 [1]: 0.22 nM
IC50 [2]: > 0.02 µM
IC50 [3]: > 0.02 µM

OB(O)c1ccccc1 [PHENYLBORONIC ACID]
Ki [12]: 196 µM

O=C(Cc1cccs1)N[C@H](B(O)O)c1ccccc1
Ki [9]: 0.035 µM

CC(=O)NCB(O)O [ACETAMIDOMETHYLBORONIC ACID]
Ki [21]: 8.9 µM
Ki [22]: 1.1 µM

O=C(Cc1cccs1)N[C@H](B(O)O)c1cccc(C(=O)O)c1
Ki [9]: 0.001 µM
Ki [16]: 0.017 µM
Ki [17]: 0.064 µM
Ki [18]: 7.8 µM
